The subject of one data set is Vero cell line. The format is cell-based, Cercopithecus aethiops. As to the method: MTT assay: cells of Vero cell line (ATCC CRL-1586™ kidney epithelial cells of Cercopithecus aethiops) were cultivated at the appropriate growth conditions as recommended by the supplier in 96-well plates at a concentration of 2 × 10^4 cells/well and treated with the peptides according to the invention at different concentrations diluted in growth medium (1, 5, 10, 20, 50, 100, 250 mM) for 3, 10 and 24 hours. Subsequently, the medium was aspirated and the cells incubated at 37 °C for 3 hours with 10 µl of MTT (bromide of 3-(4,5-dimethylthiazol-2-yl)-2,5-diphenyltetrazolium), a vital dye able to enter the mitochondria and be metabolized by succinate dehydrogenase complex to formazan salts, determining a violet coloration in those cells. Afterward, the supernatant was discharged and isopropanol (100 uL) was added to each well to dissolve the produced salts. The reaction was allowed to proceed by incubation at room temperature in tilting agitation for 20 minutes, then spectrophotometric reading was performed at 570nm to assess cell viability in terms of proliferative inhibition and cell growth.

For the next data set, the system named is Human red blood cells. The format is cell-based. On the procedure: Human red blood cells from healthy donors have been isolated and used to performed the hemolytic assay. The peptide fragments of lactoferrin of SEQ ID No. 1 and SEQ ID No. 2 at different concentrations (1, 5, 10, 20, 50, 100, 250 mM) were added to the suspension of erythrocytes to a final volume of 100 µl. Samples were incubated under stirring at 37 °C for 60 min. The hemoglobin release was monitored by measuring the absorbance (Abs) of the supernatant at 540 nm. As negative control, i.e. zero hemolysis (blank), red cells resuspended in PBS were used, whereas completely lysed erythrocytes were used as a positive control for 100% hemolysis. The percentage of hemolysis was calculated using the following equation: % Hemolysis = [(SampleAbs−negativecontrolAbs)/(positivecontrolAbs−negativecontrolAbs)] × 100. [formula]

Structures are written as SMILES. Peptide text beside a SMILES is read from it. Bounds are passed on as bounds.

As for `CC(C)C[C@H](NC(=O)CNC(=O)[C@H](CS)NC(=O)[C@H](CCCCN)NC(=O)CNC(=O)[C@H](C)NC(=O)[C@@H](NC(=O)[C@@H](N)Cc1ccc(O)cc1)[C@@H](C)O)C(=O)N[C@H](C(=O)N1CCC[C@H]1C(=O)N[C@H](C(=O)N[C@@H](CC(C)C)C(=O)N[C@@H](C)C(=O)N[C@@H](CCC(=O)O)C(=O)N[C@@H](CC(N)=O)C(=O)N[C@@H](CCCNC(=N)N)C(=O)N[C@@H](CCCCN)C(=O)N[C@H](C(=O)N[C@@H](CO)C(=O)N[C@@H](CCCCN)C(=O)N[C@@H](Cc1ccc(O)cc1)C(=O)N[C@@H](CO)C(=O)N[C@@H](CO)C(=O)N[C@@H](CC(C)C)C(=O)N[C@@H](CC(=O)O)C(=O)N[C@@H](CS)C(=O)N[C@H](C(=O)N[C@@H](CC(C)C)C(=O)N[C@@H](CCCNC(=N)N)C(=O)N1CCC[C@H]1C(=O)O)C(C)C)[C@@H](C)O)C(C)C)C(C)C` [SEQ ID No. 2] (H-YTAGKCGLVPVLAENRKTSKYSSLDCVLRP-OH), the “toxicity, measured as a function of cellular integrity” value in the data set with Vero cell line is listed as at most 20%. Also, the “toxicity towards the erythrocytes (hemolysis)” value in the data set with Human red blood cells is “not toxic”.

For the compound `CC(C)C[C@H](NC(=O)[C@H](CCC(N)=O)NC(=O)[C@H](Cc1ccccc1)NC(=O)[C@H](CO)NC(=O)[C@H](CCCNC(=N)N)NC(=O)[C@H](CO)NC(=O)[C@H](CCCCN)NC(=O)[C@H](CC(N)=O)NC(=O)[C@H](CCCCN)NC(=O)CNC(=O)[C@H](Cc1ccccc1)NC(=O)[C@@H](N)CCCCN)C(=O)N[C@@H](Cc1ccccc1)C(=O)NCC(=O)N[C@@H](CO)C(=O)N1CCC[C@H]1C(=O)N1CCC[C@H]1C(=O)NCC(=O)N[C@@H](CCC(N)=O)C(=O)N[C@@H](CCCNC(=N)N)C(=O)N[C@@H](CC(=O)O)C(=O)N[C@@H](CC(C)C)C(=O)N[C@@H](CC(C)C)C(=O)N[C@@H](Cc1ccccc1)C(=O)N[C@@H](CCCCN)C(=O)N[C@@H](CC(=O)O)C(=O)O` [SEQ ID No. 1] (H-KFGKNKSRSFQLFGSPPGQRDLLFKD-OH), the “toxicity, measured as a function of cellular integrity” value in the data set with Vero cell line was at most 20%. In addition, the “toxicity towards the erythrocytes (hemolysis)” value with Human red blood cells is listed as “not toxic”.

Values taken from EP3334759B1, “LACTOFERRIN FRAGMENT FOR THE USE AS ANTIBACTERIAL AND ANTIVIRAL AGENT” (Farmagens Health Care Srl, priority 2015, dated 2019).
